A value given as a limit tells only on which side of the number the result lay.

As for `COc1cc(OC)cc(SSc2cc(OC)cc(OC)c2)c1`, the melting point (commonly the temperature, or range, at which the solid turns liquid) was in the range of 152 to 160 °C.

For the molecule `CCCc1cn(-c2cc(=O)n(-c3ccccc3)nc2C#N)nn1`, the melting point fell in the range of 192 to 195 °C.

Consider `C#CCOc1cc(C=O)ccc1OC`, for which the melting point fell in the range of 66 to 67 °C.

For `CC(C)[C@H](N)C(c1ccccc1)c1ccccc1`, the melting point lay within 71 to 72 °C.

On to `C=CCNC(=O)c1ccc(-c2ccc3nnn(Cc4ccc5ncccc5c4)c3n2)cc1F`, for which the melting point fell in the range of 162 to 164 °C.

`O=C1CC(NC(=O)C2CCCN3C(=O)CCC(NC(=O)c4ccccc4)C(=O)N23)C(OC2CCCC2)O1` (stereo not given) yielded a melting point of 172 to 180 °C.

For `CCOc1ccc2c(c1)n(C1CCOCC1)c(=O)n2Cc1ccc(NC(=O)N(CC)CC)cc1OC`, the melting point turned out to be 168 °C.

Consider `CN1CCN(c2ccc([N+](=O)[O-])c(CS(=O)(=O)c3ccccc3)n2)CC1`, for which the melting point lay within 170 to 172 °C.

`CON=Cc1ccc2c(c1)c1c(n2CCc2cccc(F)n2)CC[C@@H](NC(=O)C2CC2)C1` showed a melting point of 223 to 225 °C.

For the molecule `Cc1cccc2c1CCn1cc(-c3ccccc3)nc1C2OC1CCN(C)CC1` (stereo not given), the melting point turned out to be 71 °C.

In turn, `CCCCn1c(=O)c(N)c(-c2cccc(OC)c2)c2cccnc21` displayed a melting point of 138 to 141 °C.

As for `Cc1[nH]c(Cc2ccccc2)nc1CO`, the melting point lay in the range of 134 to 138 °C.

In turn, `CCOC(=O)c1ccc(OCCCc2ccc(OC)c(OC)c2)cc1` returned a melting point of 70 to 71 °C.

On to `Cc1c(F)c(=O)n(-c2cc(OC(C)C)c(Cl)cc2F)c(=O)n1C`, for which the melting point lay in the range of 139 to 141 °C.

As for `CC(C)Nc1nc(C(=O)O)cn1C`, the melting point worked out at 247 °C.

Turning to `CSc1cc2ccc(-c3ccccc3)cc2cc1OS(=O)(=O)C(F)(F)F`, the melting point was 87.8 to 88.7 °C.

For the molecule `O=C(Nc1ccc2nc(CN3CCCCC3)ccc2c1)c1ccc(-c2ccc(F)cc2F)cc1`, the melting point was 181 to 182 °C.

`O=c1ccn(-c2cc(Cl)ccc2Cl)[nH]1` showed a melting point of 201 to 202 °C.

As for `COc1ccc(C(C)=O)cc1NC(=O)C(C)CCl` (stereo not given), the melting point was in the range of 92 to 97 °C.

On to `CC1(COCCCOc2ccc(C(=O)O)cc2)COC1`, for which the melting point is 102 °C.

The molecule `COCCOCCOc1ccc2cc(C(=O)O)[nH]c2c1` had a melting point of 99 to 102 °C.

`CSc1ccc(-c2nnc(Cl)cc2-c2ccc(Cl)cc2)cc1`: the melting point was in the range of 145 to 146 °C.

The molecule `FC(F)(F)c1cc(Cl)c2nc(CCl)cn2c1` had a melting point of 75 to 77 °C.

With `COC(=O)c1ccc(CCCOCCCCCCNCC(O)c2ccc(O)c(CO)c2)cc1` (stereo not given), the melting point was 43 to 45 °C.

The molecule `CCOC(=O)c1c(C)nc2c(nc(C)n2C)c1OCC` gave a melting point of 85 to 87 °C.

In turn, `COc1ccc(CCc2ccc(NC(=O)C(=O)C3=C(O)c4ccccc4SC3)cc2)cc1OC` displayed a melting point of 184 to 185 °C.

Regarding `CCN(C(=O)c1ccccc1C(=O)c1ccc(Cl)cc1)C(C)(C)CNS(=O)(=O)c1ccc(C)cc1`, the melting point lay within 175 to 176 °C.

On to `Cc1cccc(NC(=O)NC2N=C(C3CCCCC3)c3ccccc3N(CC(=O)N3CC4CCC(CC4)C3)C2=O)c1` (racemic), for which the melting point is 133 to 135 °C.

`C[C@]12CCC(=O)N[C@@H]1CCc1cc(-c3nccs3)ccc12` registered a melting point of 206 to 207 °C.

The molecule `CCOC(=O)c1sc(-n2ccc(OCc3ccc(C(F)(F)F)o3)cc2=O)nc1C` showed a melting point of 196 to 198 °C.

Turning to `C=CCOc1ccc(-c2c(OC(C)C)cccc2C(=O)O)c(OC)c1`, the melting point was in the range of 101 to 103 °C.

The molecule `CCOC(=O)c1cnn(-c2ccc(OCC(C)CC)c(C#N)c2)c1` (stereo not given) showed a melting point of 104 °C.

Molecule `COc1cccc(NC(=O)N=C2CCCN2C)c1` registered a melting point of 123 to 125 °C.

In turn, `O=C(O)C1Cc2c([nH]c3ccccc23)CN1C(=S)SCc1ccc([N+](=O)[O-])cc1` (stereo not given) came in with a melting point of 194 to 195 °C.

The molecule `CC(=O)N[C@@H]1CN2C(=O)N(c3cc(Cl)nc(Cl)c3)C(=O)[C@@]2(Cc2ccc(OC(F)(F)F)cc2)C1` displayed a melting point of 127 °C.

The molecule `NCCCCCCc1ccc(Cl)cc1` yielded a melting point of 71 °C.

Regarding `COc1ccc2c3c([nH]c2c1)C(=O)C(CC1CCN(C(=O)OC(C)(C)C)CC1)C3` (stereo not given), the melting point was 192 to 193 °C.

As to `CCN1CCC(O)(c2cccc(OC)c2)CC1`, the melting point lay in the range of 86.7 to 91.1 °C.

For `CCOC(=O)C(=CNc1ccc(OC)c(C)n1)C(=O)OCC`, the melting point was 109 to 110 °C.

On to `O=[N+]([O-])c1ccccc1NOS(=O)(=O)c1ccccc1`, for which the melting point turned out to be 140 °C.

In turn, `CC(C)Nc1nccc(C(=O)C(=O)c2ccc(F)cc2)n1` displayed a melting point of 75 to 77 °C.

`CCCCCCCCCCCCCCCCCC(=O)OC[C@H]1OCC(=NO)[C@@H](O)[C@@H]1O` had a melting point of 99 to 105 °C.

Molecule `O=C1CCC(c2c(-c3ccccc3)nn3ccccc23)=NN1` came in with a melting point of 187 to 189 °C.

`COC(=O)c1ccc(-c2c[nH]c(-c3ccc4c(c3)C(C)(C)CCC4(C)C)c2)cc1` came in with a melting point of 174 to 175 °C.

The molecule `CC(C)(Oc1ccc(CCC(=O)c2ccc(-c3ccc(C(F)(F)F)cc3)s2)c(F)c1F)C(=O)O` displayed a melting point of 165 to 166 °C.

For `CC(=C1SCCCS1)c1cccc(OCC(=O)O)c1`, the melting point lay within 133 to 134 °C.

As to `CN1Cc2c(C(=O)OCCO)ncn2-c2ccc(F)cc2C1=O`, the melting point lay within 202 to 204 °C.

For `O=C1CN(c2cccc(CF)c2)NC(=O)N1`, the melting point lay within 169 to 170 °C.

Molecule `NC1=NS(=O)N=C1NCCCN(Cc1ccncc1)c1ccccn1` (stereo not given) came in with a melting point of 103 to 110 °C.

The molecule `CS(=O)(=O)c1cccc(C(=O)O)c1O` yielded a melting point of 180 °C.

Molecule `C(=Nc1ccc(Nc2ccccc2)cc1)Nc1ccc(Nc2ccccc2)cc1` came in with a melting point of 173 to 175 °C.

Consider `O=C1NN=CC1=CNCCC(F)=C(F)F`, for which the melting point fell in the range of 126 to 130 °C.

Consider `C=C(C)Cn1nc(C(=O)c2cccc(O)c2)c2ccccc21`, for which the melting point lay in the range of 75 to 78 °C.

Consider `Cn1nccc1C(=O)c1cc(O)c(O)c(Cl)c1Cl`, for which the melting point lay in the range of 202 to 204 °C.

Take `COc1ccc(OC)c2c1CCC(O)C2` (stereo not given): the melting point was in the range of 128 to 129 °C.

In turn, `COc1ccc2ncn(C3CCN(C(C)c4ccccc4)CC3)c(=O)c2c1` (stereo not given) showed a melting point of 124 °C.

As for `O=C(O)c1ccc(OCCc2c(CCNS(=O)(=O)Cc3ccccc3Cl)n(C(c3ccccc3)c3ccccc3)c3ccc(Cl)cc23)cc1F`, the melting point fell in the range of 132 to 135 °C.

Turning to `CC(=O)C(=Cc1cc(Cl)c(S(C)(=O)=O)c(Cl)c1)C(C)=O`, the melting point was 134 to 136 °C.

Molecule `C[C@@H](Cn1ncc2ccc(O)c(Br)c21)O[Si](C)(C)C(C)(C)C` had a melting point of 103 to 105 °C.

`OC1CSC(Oc2cncc(-c3cc4ccccc4s3)c2)C(O)C1O` (stereo not given): the melting point is 235 °C.

Consider `CC(C(=O)O)c1ccccc1OS(C)(=O)=O` (stereo not given), for which the melting point lay in the range of 94 to 96 °C.

Consider `CCOC(=O)c1cc2c(C(F)(F)F)cc(C=O)cc2n1C`, for which the melting point lay in the range of 140 to 141 °C.

Regarding `CCOC(=O)/C=C/c1ccc(C=Cc2nc(-c3ccccc3)oc2C)cc1`, the melting point is 161 to 162 °C.

In turn, `COc1ccc(CNc2cc[nH]n2)cc1OC1CCCC1` gave a melting point of 106 to 110 °C.

`O=C(NC1CCCC1)n1cc(F)c(=O)[nH]c1=O` yielded a melting point of 137 °C.

With `CN(C)c1ccc(/C=C/c2ccccc2F)cc1`, the melting point is 124 to 126 °C.

`O=S(=O)(Nc1cccc(CCOCc2cccc(-c3ccccc3)n2)c1)C(F)(F)F` displayed a melting point of 75 to 77 °C.

Consider `NC(=O)N1CCCC(=O)c2ccc(Cl)cc2CCC1=O`, for which the melting point is 182 to 184 °C.

`CC1Cc2cc3c(cc2C(c2ccc([N+](=O)[O-])cc2)=NN1c1nnns1)OCO3` (stereo not given) displayed a melting point of 109 to 110 °C.

On to `O=C(O)[C@H](Cc1ccccc1)NC(=S)Cc1ccc([N+](=O)[O-])cc1`, for which the melting point lay within 149 to 150 °C.

In turn, `NS(=O)(=O)Cc1ccccc1OC(F)(F)F` returned a melting point of 127 °C.

Molecule `CS(=O)(=O)c1ccccc1C(=O)N1CCC(N2CCC(Oc3ccc(Cl)c(Cl)c3)CC2)CC1` had a melting point of 141 °C.

The molecule `CCCc1c(OCCC(=O)O)ccc(C(C)=O)c1O` had a melting point of 142 to 146 °C.

`Cc1ccccc1C(=NC(=Nc1ccccc1)C1(C)CCCCC1)Nc1ccc(F)cc1` showed a melting point of 210 to 211 °C.

Turning to `CCOC(=O)c1c(COc2cccc(C)n2)nc2cc(OC)c(OC)cc2c1-c1ccc(OC)c(OC)c1`, the melting point is 173 to 174 °C.

`N#CN1c2ccccc2C=Cc2ccccc21`: the melting point fell in the range of 108 to 109 °C.

The molecule `CCS(=O)(=O)Nc1cc(C(=O)Nc2ccccc2)ccc1OC` came in with a melting point of 175 to 177 °C.

Regarding `CCCCCCCCCCCCC[C@@H](CC(N)=O)OC(=O)[C@H](CCCC(=O)OCc1ccccc1)NC(=O)c1cnc2ccccc2c1`, the melting point was 85 to 87 °C.

In turn, `OC1CCCc2nc3ccccc3c(NCc3ccc(F)cc3)c21` (stereo not given) returned a melting point of 170 °C.

`CCOCCOc1c(C)cc(-c2ccc3c(c2)C=C(C(=O)Nc2ccc(CN(C)C4CCOCC4)cc2)CCS3(=O)=O)cc1C` showed a melting point of 211 to 212 °C.

`OCC(CO)c1ccccc1`: the melting point was 52 to 54 °C.

`Cc1nc(NC(=O)c2cccc(F)c2)sc1C(=O)NCc1ccccc1`: the melting point was in the range of 162 to 165 °C.

In turn, `Cc1cccc(-c2nc(N)ncc2-c2ccc(=O)n(C(C)C)n2)c1` came in with a melting point of 198 °C.

The molecule `COc1ccc(-c2c(Cl)c(CN3C(=O)CCC3=O)nc3sc4c(c23)CC(C)(C)C(=O)C4(F)F)cc1` yielded a melting point of 200 to 202 °C.

Turning to `Cc1c(C(=O)c2ccccc2Cl)c(NC(=O)CI)cn1C`, the melting point lay within 155 to 157 °C.

As to `Cc1sc2c(c1C)C(c1ccc(Cl)cc1)=NCc1nnc(C)n1-2`, the melting point was more than 250 °C.

`CCc1ccnc(C(=O)c2[nH]c3ccc(OC(F)(F)F)cc3c2CC(=O)O)c1` showed a melting point of 223 °C.

`Cc1nc2sccn2c(=O)c1CCN1CCC2Nc3ccccc3C2C1` (stereo not given) registered a melting point of 152 °C.

For the molecule `Cn1ncc2c1-c1ccc(Cl)cc1C(c1ccccc1F)=NC2`, the melting point is 128 to 130 °C.

The molecule `O=C(O)c1ccc(C(=O)NS(=O)(=O)c2ccccc2)cc1` returned a melting point of 259 to 261 °C.

Values taken from a melting point compilation (Tetko et al.; mined from patent text by program, amines drawn as free bases though some values may be those of a salt).
